{"source": "paper PMC6934184", "about": "“Selective DNA-PKcs inhibition extends the therapeutic index of localized radiotherapy and chemotherapy” (The Journal of Clinical Investigation, 2019)", "target": "T1, MAP4K5 (KHS1) (Homo sapiens, UniProt Q9Y4K4)", "T1 construct": "purchased Thermo Fisher Scientific (Life Technologies) SelectScreen", "T1 sequence (Q9Y4K4 whole entry)": "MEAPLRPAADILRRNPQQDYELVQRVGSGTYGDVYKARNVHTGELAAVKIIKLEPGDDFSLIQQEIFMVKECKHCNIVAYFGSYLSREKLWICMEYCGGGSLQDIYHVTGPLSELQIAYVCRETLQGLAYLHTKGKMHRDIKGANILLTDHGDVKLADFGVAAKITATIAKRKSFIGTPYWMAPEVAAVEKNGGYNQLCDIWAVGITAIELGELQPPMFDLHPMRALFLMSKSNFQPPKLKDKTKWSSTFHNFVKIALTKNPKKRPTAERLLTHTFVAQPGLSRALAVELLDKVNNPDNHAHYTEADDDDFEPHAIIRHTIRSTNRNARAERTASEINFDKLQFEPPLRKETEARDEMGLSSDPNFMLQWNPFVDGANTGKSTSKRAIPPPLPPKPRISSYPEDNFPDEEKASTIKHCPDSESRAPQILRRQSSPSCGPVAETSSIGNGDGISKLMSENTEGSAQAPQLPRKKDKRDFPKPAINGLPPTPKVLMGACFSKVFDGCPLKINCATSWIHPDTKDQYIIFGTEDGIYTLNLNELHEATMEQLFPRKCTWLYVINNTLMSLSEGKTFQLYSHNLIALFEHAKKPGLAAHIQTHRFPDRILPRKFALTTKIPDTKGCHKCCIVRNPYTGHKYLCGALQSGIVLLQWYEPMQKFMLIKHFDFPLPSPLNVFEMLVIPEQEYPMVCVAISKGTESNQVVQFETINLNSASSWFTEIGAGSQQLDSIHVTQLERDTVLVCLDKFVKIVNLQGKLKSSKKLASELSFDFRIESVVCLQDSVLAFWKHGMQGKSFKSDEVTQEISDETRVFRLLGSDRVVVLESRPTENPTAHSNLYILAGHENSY", "test": "SelectScreen Z'LYTE", "format": "biochemical", "method_in_brief": "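Percent values come from Thermo SelectScreen profiling of NU5455, combining activity and binding assays. CSF1R was run in Z'LYTE format at Km app ATP, and CAMK1 in Adapta format with ATP listed at 10.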"}
{"smiles": "CN(C(=O)CN1CCOCC1)c1ccc2sc3c(-c4cccc5c(=O)cc(N6CC7CCC(C6)O7)oc45)cccc3c2c1", "note": "[NU5455]", "values": [{"measurement": "inhibition at 1 µM", "value": -2, "unit": "%"}]}
